{"source": "patent US8138184B2", "about": "“Isoxazole derivatives and pharmaceutical compositions comprising the same” (Kaohsiung Medical University, priority 2008, dated 2012)", "key": {"[1]": {"system": "Human adipose tissue derived stem cells (hADSCs)", "assay": "Cell viability by MTT assay in hADSCs", "type": "cell-based", "details": "10 μM, % of control", "experimental": "(§1) Human adipose tissue derived stem cells (hADSCs), which is derived from adipose tissue, were selected an maintained in a keratinocyte SFM medium (Gibco BRL, Gaithersburg, Md.) supplemented with 5% FBS, 100 U/ml of penicillin and streptomycin.\n(§2) New synthetic compounds were dissolved in DMSO to a final concentration of 10 mM and stored at −20° C. The concentration used was 10 μM and freshly diluted to the medium with a final concentration of DMSO at 0.1%. Control cultures were treated with the same amount of DMSO as used in the corresponding experiments.\nThe MTT assay is a calorimetric assay based on the ability of the viable cells to reduce a soluble yellow tetrazolium salt to blue formazan crystals (Carmichael, J. et. el. Cancer Research 1987, 47, 936). After compound treatments, 350 μL of MTT solution ([…] in PBS) were added to each well and incubated for 4 hrs. DMSO was then added for another 0.5 hrs to thoroughly dissolve the dark blue crystals. The absorbance at 570 nm was measured with an ELISA reader. Inhibition of mitochondrial metabolism was shown as relative activity (% of control)."}, "[2]": {"system": "Human adipose tissue derived stem cells (hADSCs)", "assay": "Cytotoxicity assay by lactate dehydrogenase (LDH) leakage in hADSCs", "type": "cell-based", "details": "10 μM, % of total cell toxicity", "experimental": "as §1, §2\nLactate dehydrogenase (LDH) leakage from cells was measured to quantify the cytotoxicity by using a cytotoxicity detection kit (Roche, Germany) (Crowston, J. G. et al Invest. Ophthalmol. Vis. Sci. 1998, 39, 449). Cells were previously seeded into 48-well plates (4×10^4 cells/well). After a drug treatment, the supernatants and cell layers of the cultures were collected for assay. According to the manufacturer's guidelines for the detection kit, cell layers were lysed with 1% TritonX-100, and cell lysates and supernatants were assayed in a 96-well plate, respectively. Briefly, 100 μL of catalyst solution was added in each assay well for 20 min. Absorbance was measured with an ELISA reader with a 490 nm filter. LDH leakage was shown as relative activity (% of total cell toxicity)."}, "[3]": {"system": "Human adipose tissue derived stem cells (hADSCs)", "assay": "Osteogenic differentiation and quantification of mineralization (Alizarin red S) in hADSCs", "type": "cell-based", "details": "10 μM, 10 days", "experimental": "as §1, §2\nOsteogenic differentiation was induced by culturing cells in an osteo-induction medium (OIM, 10% FBS, 0.1 μM dexamethasone, 10 mM β-glycerophosphate, and L-Ascorbic 2 phosphate 100 μM in low glucose DMEM) for 7-14 days. The extracellular matrix calcification was estimated by using an Alizarin red S stain (Carl, A. et al Anal. Biochem. 2004, 329, 77). The Alizarin red S-stained mineral was quantified by the osteogenesis quantification kit (CHEMICON®)."}, "[4]": {"system": "MCF-7 cells (human breast adenocarcinoma)", "assay": "Cytotoxicity assay (MTS reduction), MCF-7", "type": "cell-based", "details": "3 days, % of DMSO control", "experimental": "(§3) MCF-7 cells (human breast adenocarcinoma), NCI-H460 cells (non-small-cell lung cancer) and SF-268cells (glioblastoma cells) were cultured in a Dulbecco's modified Eagle's medium supplemented with a 10% fetal calf serum and a nonessential amino acid (Life Technologies, Inc.) and maintained at 37° C. in a humidified incubator with 5% CO2.\n(§4) Human cancer cells were seeded in 96-well microtiter plates at a density of 6500, 2500 and 7500 cells/well in 100 μl of culture medium for MCF-7, NCI-H460, and SF-268, respectively. […] Cells were treated with test compounds for 3 days. Cell viability was determined by the 5-[3-(carboxymethoxy)-phenyl]-2-(4,5-dimethylthiazolyl)-3-(4-sulfophenyl)tetrazolium salt (MTS) reduction assay. Actinomycin D (10 μM, final concentration) and DMSO (0.1%, final concentration) were used as positive and vehicle controls, respectively. Results were expressed as a % of the DMSO control."}, "[5]": {"system": "NCI-H460 cells (non-small-cell lung cancer)", "assay": "Cytotoxicity assay (MTS reduction), NCI-H460", "type": "cell-based, human", "details": "3 days, % of DMSO control", "experimental": "as §3, §4"}, "[6]": {"system": "SF-268 cells (glioblastoma cells)", "assay": "Cytotoxicity assay (MTS reduction), SF-268", "type": "cell-based, human", "details": "3 days, % of DMSO control", "experimental": "as §3, §4"}}}
{"substance": "2-[4-(3,4-Dimethoxyphenyl)isoxazol-5-yl]-5-([6-(piperidin-1-yl)hexyloxy]phenol [8b]", "values": [{"measurement": "Cell viability (3 days, MTT)", "setting": "[1]", "value": 11, "unit": "%"}, {"measurement": "Cell cytotoxicity (3 days, LDH)", "setting": "[2]", "value": 41, "unit": "%"}, {"measurement": "Mineralization (10 days)", "setting": "[3]", "value": 285, "unit": "%"}, {"measurement": "Growth percentage MCF7 (Breast)", "setting": "[4]; 4 μg/mL", "value": 93, "unit": "%"}, {"measurement": "Growth percentage MCF7 (Breast)", "setting": "[4]; 20 μg/mL", "value": 4, "unit": "%"}, {"measurement": "Growth percentage NCI-H460 (Lung)", "setting": "[5]; 4 μg/mL", "value": 89, "unit": "%"}, {"measurement": "Growth percentage NCI-H460 (Lung)", "setting": "[5]; 20 μg/mL", "value": 2, "unit": "%"}, {"measurement": "Growth percentage SF-268 (CNS)", "setting": "[6]; 4 μg/mL", "value": 116, "unit": "%"}, {"measurement": "Growth percentage SF-268 (CNS)", "setting": "[6]; 20 μg/mL", "value": 15, "unit": "%"}]}
